Laboratory results published in PMC9861858, “Stereoselective Synthesis and Antiproliferative Activities of Tetrafunctional Diterpene Steviol Derivatives” (International Journal of Molecular Sciences, 2023).
Converted amounts (≈) assume the structure as drawn. “Also recorded” adds a separate entry of the source.

What was measured:
[1] = Kinetic aqueous solubility; type: physicochemical; conditions: phosphate buffered saline with 5% DMSO, aqueous with cosolvent or surfactant or cyclodextrin, kinetic from dmso stock; after 2 h, at 37 °C in PBS, pH 7.4, 5% DMSO; target concentration 500 μM; mean ± S.E.M, n = 3
Description: (§1) Filtrates and calibration solutions (5–500 μ M) of the kinetic solubility study and starting donor and acceptor solutions of the PAMPA-GI study were investigated by HPLC-DAD-MS. LC-MS analysis was performed using a Waters 2795 HPLC with a Waters 2487 DAD detector coupled with a Micromass Quattro Ultima TMPt quadrupol mass spectrometer equipped with an ESI source. Measurements were performed on a Waters XSelect C18 (150 × 4.6 mm; 3.5 μm) column with a […] eluent flow rate and the temperature set at 40 °C. The composition of eluent A was MilliQ water with 0.1% formic acid, and that of eluent B was an acetonitrile and MilliQ water mixture (95:5, v/v), also with 0.1% formic acid. The following linear gradient program was used: 0–6 min, 10–100% B; this was held for 3 min, then from 9.01 min on, back to the starting composition of 10% B–90% A. The injection volume was 10 μL for each sample. Chromatographic profiles were registered at dual wavelength, 220 and 240 nm. The mass spectrometer was used in negative ion mode for samples 2, 3 and 4b, and in positive ion mode for other samples. The operating parameters of the MS were: Mass range of m/z 150–700. Nitrogen gas flow rate was 350 L/h, temperature of 350 °C and pressure of 6 bar. The quadrupol temperature was 120 °C, and the capillary voltage was 2.5 kV. Fragmentor’s voltage of 60 V.
(§2) Intestinal (GI) permeability was determined by using an intestinal-specific parallel artificial membrane permeability assay (PAMPA-GI [36]]). […] All solutions were filtered by MultiScreen HTS Vacuum Manifold (Merck Ltd., Budapest, Hungary) after the incubation period. The target concentration was 500 μM for every sample investigated. The intestinal-specific effective permeability of the samples was determined by PAMPA-GI. To prepare starting solutions for a 96-well donor plate, 15 μLs of the 10 mM DMSO stock solution of investigation compounds and 285 μL pH 6.5 phosphate buffer solution were mixed. These solutions were left in a shaking incubator (300 rpm) at 25 °C for 1 h. Meanwhile, a 96-well acceptor plate was filled with 300 μL of pH 7.4 PBS buffer solution containing 5% DMSO. The intestinal-specific artificial membrane was prepared the following way: the hydrophobic filter material of the donor plate was coated with a mixture of phosphatidylcholine/cholesterol = 2:1 (5 μL, 4 % (w/v) in dodecane). After that, all donor wells were filled with 150 μL of the starting donor solutions, and they were carefully placed on the acceptor plate and incubated at 37 °C for 4 h. After the end of the incubation period the donor and acceptor plates were separated carefully. A total of 150 μL of the donor, acceptor and the starting donor solutions were sampled and analysed with HPLC-DAD-MS. The effective permeability and membrane retention of drugs were calculated using the following equations: Pe=−2.303/A·(t−τss)·1/1+rv·lg[−rv+(1+rv/1−MR)·]CD(t)/CD(0) MR=1−CD(t)/CD(0)−VA·CA(t)/VD·CD(0) where Pe is the effective permeability coefficient (cm/s), A is the filter area (0.3 cm^2), VD and VA are the volumes in the donor (0.15 cm^3) and acceptor phase (0.3 cm^3), t is the incubation time (s), τSS is the time to reach steady-state (s), CD(t) is the concentration of the compound in the donor phase at time point t (mol/cm^3), CD(0) is the concentration of the compound in the donor phase at time point zero (mol/cm^3), rv is the aqueous compartment volume ratio (VD/VA), MR is the membrane retention factor.

HeLa cells = test: MTT antiproliferative assay, HeLa; type: cell-based, human; conditions: Homo sapiens, HeLa, 72 h, values <20% considered negligible, read-out: Growth inhibition (%) ± SEM, HeLa
Description: (§3) The in vitro antiproliferative activities of the synthesised aminotriols 5–18 against a panel of different human cancer cell lines of gynecological origin, including cervical (SiHA and HeLa), breast (MCF7 and MDA-MB-231), ovary (A2780) cancers and NIH/3T3 healthy fibroblasts, were assayed by the MTT method. Cisplatin, a clinically applied anticancer agent was used as a reference compound, and the results are summarised in Figure 3 and Table S1 in the Supplementary Materials.
(§4) The growth-inhibitory effects of the presented terpenes were determined by a standard MTT [3-(4,5-dimethylthiazol2-yl)-2,5-diphenyltetrazolium bromide] assay against […] human cancer cell lines (cervical cancer HeLa and SiHa cell lines, breast cancer MCF-7 and MDA-MB-231 and ovarian cancer A2780). Murine embryonal fibroblast cells (NIH/3T3) were used to determine selectivity. All cell lines were purchased from the European Collection of Cell Cultures (Salisbury, UK). The cells were cultivated in Eagle’s minimal essential medium supplemented with 10% fetal bovine serum, 1% non-essential amino acids, and 1% Antibiotic-Antimycotic complex (penicillin, streptomycin, amphotericin B) at 37 °C in a humidified atmosphere containing 5% CO2. All media and supplements were purchased from Lonza Group Ltd. (Basel, Switzerland). Cancer cells were seeded into 96-well plates (5000 cells/well) after an overnight incubation, and the test compounds were added at two different concentrations (10 μM and 30 μM) and incubated for another 72 h under cell-culturing conditions. Finally, 20 μL of a 5 mg/mL MTT solution was added to each well, and the contents were incubated for a further 4 h. The medium was removed, and the precipitated formazan crystals were dissolved in DMSO by shaking at 37 °C for 60 min. The absorbance was measured at 545 nm by using a microplate reader (SPECTROStar Nano, BMG Labtech, Offenburg, Germany). Clinically utilised anticancer agent cisplatin (Ebewe GmbH, Unterach, Austria) was included as a reference molecule. Calculations were performed using the GraphPad Prism 9 software (GraphPad Software Inc., San Diego, CA, USA).

A2780 cells = test: MTT antiproliferative assay, A2780; type: cell-based, human; conditions: for Antiproliferative effect on A2780, in words: 10 and 30 μM; for inhibition at 10 µM / inhibition at 30 µM: Homo sapiens, 72 h, values <20% considered negligible, read-out: Growth inhibition (%) ± SEM, A2780; for inhibition at 10 µM: A2780, 10 μM; for inhibition at 30 µM: A2780, 30 μM
Description: as §3, §4

MDA-MB-231 cells = test: MTT antiproliferative assay, MDA-MB-231; type: cell-based, human; conditions: for Antiproliferative effect / selectivity on MDA-MB-231, in words: 10 and 30 μM; for inhibition at 10 µM / inhibition at 30 µM: Homo sapiens, 72 h, values <20% considered negligible, read-out: Growth inhibition (%) ± SEM, MDA-MB-231; for inhibition at 10 µM: MDA-MB-231, 10 μM; for inhibition at 30 µM: MDA-MB-231, 30 μM
Description: as §3, §4

MCF-7 cells = test: MTT antiproliferative assay, MCF-7; type: cell-based, human; conditions: for Antiproliferative effect / selectivity on MCF-7, in words: 10 and 30 μM; for inhibition at 10 µM / inhibition at 30 µM: Homo sapiens, 72 h, values <20% considered negligible, read-out: Growth inhibition (%) ± SEM, MCF-7; for inhibition at 10 µM: MCF7, 10 μM; for inhibition at 30 µM: MCF7, 30 μM
Description: as §3, §4

SiHa cells = test: MTT antiproliferative assay, SiHa; type: cell-based, human; conditions: Homo sapiens, SiHa, 72 h, values <20% considered negligible, read-out: Growth inhibition (%) ± SEM, SiHa
Description: as §3, §4

[2] = Intestinal-specific parallel artificial membrane permeability assay (PAMPA-GI); type: in vitro ADME; conditions: gradient pH system (pH donor 6.5 → pH acceptor 7.4) after 4 h, at 37 °C, mean ± S.E.M, n = 3; for Papp at 4 h, 500 µM: PAMPA, read-out: PAMPA-GI Pe
Description: as §1, §2

NIH/3T3 fibroblasts = test: MTT assay on fibroblasts (selectivity); type: cell-based, murine; conditions: Mus musculus, 72 h, values <20% considered negligible, read-out: Growth inhibition (%) ± SEM, NIH/3T3; for inhibition at 10 µM: NIH3T3, 10 μM; for inhibition at 30 µM: NIH3T3, 30 μM
Description: as §3, §4

| solubility kinetic at 2 h [1] | Papp at 4 h, 500 µM [2] | PAMPA-GI MR (membrane retention) [2] | melting point | SMILES | inhibition at 10 µM (HeLa cells) | inhibition at 30 µM (HeLa cells) | Antiproliferative effect on A2780, in words (A2780 cells) | inhibition at 10 µM (A2780 cells) | inhibition at 30 µM (A2780 cells) | Antiproliferative effect / selectivity on MDA-MB-231, in words (MDA-MB-231 cells) | inhibition at 10 µM (MDA-MB-231 cells) | inhibition at 30 µM (MDA-MB-231 cells) | Antiproliferative effect / selectivity on MCF-7, in words (MCF-7 cells) | inhibition at 10 µM (MCF-7 cells) | inhibition at 30 µM (MCF-7 cells) | inhibition at 10 µM (SiHa cells) | inhibition at 30 µM (SiHa cells) | inhibition at 10 µM (NIH/3T3 fibroblasts) | inhibition at 30 µM (NIH/3T3 fibroblasts) |
| --- | --- | --- | --- | --- | --- | --- | --- | --- | --- | --- | --- | --- | --- | --- | --- | --- | --- | --- | --- |
| 182 ± 3.2 µM (≈ 88.2 µg/mL) | 0.64 ± 0.07 ×10⁻⁶ cm/s | 28.8 ± 5.8% | 84 to 87 °C | COC(=O)[C@]1(C)CCC[C@@]2(C)C3CC[C@]4(O)C[C@@]3(CCC21)[C@@H](O)[C@]4(O)CN[C@H](C)c1ccccc1 (stereo partly drawn) [Compound 7, (4R,6aR,7R,8R,9S,11bS)-Methyl 7,8,9-Trihydroxy-4,11b-dimethyl-8-((((R)-1-phenylethyl)amino)methyl)tetradecahydro-6a,9-methanocyclohepta[a]naphthalene-4-carboxylate] | 33.7 ± 0.93% | 97.76 ± 0.25% | slightly weaker action | 52.9 ± 1.83% | 98.14 ± 0.36% | noteworthy selectivity | 88.05 ± 0.59% | 94.56 ± 0.63% | slightly weaker action | 62.8 ± 1.05% | 97.69 ± 0.38% | < 20% | 94.56 ± 0.54% | 35.8 ± 4.12% | 100.5 ± 0.37% |
| 131 ± 2.2 µM (≈ 63.8 µg/mL) | 0.58 ± 0.01 ×10⁻⁶ cm/s | 42.6 ± 3.9% | 157 to 161 °C | COC(=O)[C@]1(C)CCC[C@@]2(C)C3CC[C@]4(O)C[C@@]3(CCC21)[C@@H](O)[C@]4(O)CN[C@@H](C)c1ccccc1 (stereo partly drawn) [Compound 8, (4R,6aR,7R,8R,9S,11bS)-Methyl 7,8,9-Trihydroxy-4,11b-dimethyl-8-((((S)-1-phenylethyl)amino)methyl)tetradecahydro-6a,9-methanocyclohepta[a]naphthalene-4-carboxylate] | < 20% | 96.19 ± 0.25% | slightly weaker action | 59.9 ± 3.03% | 97.45 ± 0.36% | noteworthy selectivity | 84.3 ± 2.78% | 95.62 ± 0.92% | slightly weaker action | 74 ± 2.14% | 96.04 ± 0.32% | < 20% | 95.09 ± 0.69% | 58.8 ± 1.41% | 103.2 ± 0.33% |
| 143 ± 26.8 µM (≈ 71.7 µg/mL) | 0.37 ± 0.11 ×10⁻⁶ cm/s | 6.1 ± 1.1% | 161 to 163 °C | COC(=O)[C@]1(C)CCC[C@@]2(C)C3CC[C@]4(O)C[C@@]3(CCC21)[C@@H](O)[C@]4(O)CNCc1ccc(OC)cc1 (stereo partly drawn) [Compound 10, (4R,6aR,7R,8R,9S,11bS)-Methyl 7,8,9-Trihydroxy-8-(((4-methoxybenzyl)amino)methyl)-4,11b-dimethyltetradecahydro-6a,9-methanocyclohepta[a]naphthalene-4-carboxylate] | 27.8 ± 1.05% | 96.06 ± 0.93% | – | < 20% | 96.79 ± 0.25% | – | 37.8 ± 2.27% | 93.42 ± 0.56% | higher selectivity; also recorded: performed best | 74.3 ± 2.62% | 95.66 ± 0.76% | 24.1 ± 1.39% | 94.64 ± 0.5% | < 20% | 90.9 ± 1.17% |
| 145 ± 14.1 µM (≈ 73.2 µg/mL) | 0.48 ± 0.05 ×10⁻⁶ cm/s | 22.4 ± 2.0% | 63 to 67 °C | COC(=O)[C@]1(C)CCC[C@@]2(C)[C@@H]3CCC4(O)C[C@@]3(CC[C@@H]21)[C@@H](O)[C@]4(O)CN[C@H](C)c1ccc(F)cc1 [Compound 11, (4R,4aS,6aR,7R,8R,11aS,11bS)-Methyl 8-((((R)-1-(4-Fluorophenyl)ethyl)amino)methyl)-7,8,9-trihydroxy-4,11b-dimethyltetradecahydro-6a,9-methanocyclohepta[a]naphthalene-4-carboxylate] | 95.4 ± 1.08% | 95.8 ± 1.11% | – | 97.06 ± 0.3% | 97.51 ± 0.22% | – | 93.66 ± 0.59% | 94.31 ± 0.51% | – | 96.23 ± 0.59% | 96.27 ± 0.65% | 93.66 ± 0.85% | 94.59 ± 0.49% | 44.4 ± 0.7% | 90.5 ± 1.16% |
